Results from US8802597B2, “Herbicidal pyrimidines” (E I du Pont de Nemours and Company, priority 2003, dated 2014).

Experiments:
Assay type in all cases: in vivo
[1] = system: smallflower umbrella sedge (Cyperus difformis); assay: Test E flooded paddy water application; details: Flood, 21 days, scale 0 to 100 (0 no effect, 100 complete control)
From the text: (§1) Three plastic pots (ca. 16-cm diameter) per rate were partially filled with sterilized Tama silt loam soil comprising a 35:50:15 ratio of sand, silt and clay and 2.6% organic matter. Separate plantings for each of the three pots were as follows. Seeds from the U.S. of ducksalad (Heteranthera limosa), smallflower umbrella sedge (Cyperus difformis) and purple redstem (Ammannia coccinea), were planted into one 16-cm pot for each rate. Seeds from the U.S. of rice flatsedge (Cyperus iria), bearded (brdd.) sprangletop (Leptochloa fusca ssp. fascicularis), one stand of 9 or 10 water seeded rice seedlings (Oryza sativa cv. ‘Japonica-M202’), and one stand of 6 transplanted rice seedlings (Oryza sativa cv. ‘Japonica-M202’) were planted into one 16-cm pot for each rate. Seeds from the U.S. of barnyardgrass (Echinochloa crus-galli), late watergrass (Echinochloa oryzicola), early watergrass (Echinochloa oryzoides) and junglerice (Echinochloa colona) were planted into one 16-cm pot for each rate. Plantings were sequential so that crop and weed species were at the 2.0 to 2.5-leaf stage at time of treatment.
(§2) Potted plants were grown in a greenhouse with day/night temperature settings of 29.5/26.7° C., and supplemental balanced lighting was provided to maintain a 16-hour photoperiod. Test pots were maintained in the greenhouse until test completion.
(§3) At time of treatment, test pots were flooded to 3 cm above the soil surface, treated by application of test compounds directly to the paddy water, and then maintained at that water depth for the duration of the test. Effects of treatments on rice and weeds were visually evaluated by comparison to untreated controls after 21 days. Plant response ratings, summarized in Table E, are based on a scale of 0 to 100 where 0 is no effect and 100 is complete control. A dash (-) response means no test result.

[2] = system: barnyardgrass (Echinochloa crus-galli); assay: Test E flooded paddy water application; details: Flood, 21 days, scale 0 to 100 (0 no effect, 100 complete control)
From the text: as §1, §2, §3

[3] = system: rice flatsedge (Cyperus iria); assay: Test E flooded paddy water application; details: Flood, 21 days, scale 0 to 100 (0 no effect, 100 complete control)
From the text: as §1, §2, §3

[4] = system: water seeded rice seedlings (Oryza sativa cv. ‘Japonica-M202’); assay: Test E flooded paddy water application; details: Flood, 21 days, scale 0 to 100 (0 no effect, 100 complete control)
From the text: as §1, §2, §3

[5] = system: transplanted rice seedlings (Oryza sativa cv. ‘Japonica-M202’); assay: Test E flooded paddy water application; details: Flood, 21 days, scale 0 to 100 (0 no effect, 100 complete control)
From the text: as §1, §2, §3

[6] = system: early watergrass (Echinochloa oryzoides); assay: Test E flooded paddy water application; details: Flood, 21 days, scale 0 to 100 (0 no effect, 100 complete control)
From the text: as §1, §2, §3

[7] = system: junglerice (Echinochloa colona); assay: Test E flooded paddy water application; details: Flood, 21 days, scale 0 to 100 (0 no effect, 100 complete control)
From the text: as §1, §2, §3

[8] = system: purple redstem (Ammannia coccinea); assay: Test E flooded paddy water application; details: Flood, 21 days, scale 0 to 100 (0 no effect, 100 complete control)
From the text: as §1, §2, §3

[9] = system: late watergrass (Echinochloa oryzicola); assay: Test E flooded paddy water application; details: Flood, 21 days, scale 0 to 100 (0 no effect, 100 complete control)
From the text: as §1, §2, §3

[10] = system: bearded (brdd.) sprangletop (Leptochloa fusca ssp. fascicularis); assay: Test E flooded paddy water application; details: Flood, 21 days, scale 0 to 100 (0 no effect, 100 complete control)
From the text: as §1, §2, §3

[11] = system: ducksalad (Heteranthera limosa); assay: Test E flooded paddy water application; details: Flood, 21 days, scale 0 to 100 (0 no effect, 100 complete control)
From the text: as §1, §2, §3

[12] = system: barnyardgrass (Echinochloa crus-galli); assay: Test A pre/postemergence
How it was run: (§4)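 Greenhouse herbicide test with preemergence directed soil spray and postemergence foliar spray at the 1- to 2-leaf stage; visual control rating 0–100 versus untreated at ~10 days.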

[13] = system: velvetleaf (Abutilon theophrasti); assay: Test A pre/postemergence
How it was run: as §4

[14] = system: redroot pigweed (Amaranthus retroflexus); assay: Test A pre/postemergence
How it was run: as §4

[15] = system: crabgrass (Digitaria sanguinalis); assay: Test A pre/postemergence
How it was run: as §4

[16] = system: morningglory (Ipomoea spp.); assay: Test A pre/postemergence
How it was run: as §4

[17] = system: giant foxtail (Setaria faberi); assay: Test A pre/postemergence
How it was run: as §4

[18] = Postemergence, 125 g ai/ha, 0 to 100 scale (0 no effect, 100 complete control)
[19] = Postemergence, 500 g ai/ha, 0 to 100 scale (0 no effect, 100 complete control)
[20] = Preemergence, 125 g ai/ha, 0 to 100 scale where 0 is no effect and 100 is complete control, approximately ten days
[21] = Preemergence, 500 g ai/ha, 0 to 100 scale where 0 is no effect and 100 is complete control, approximately ten days

CCOC(=O)c1nc(-c2ccc(C)cc2)nc(N)c1Br [Compound 61]
65: Barnyardgrass plant response rating ([2]; 500 g ai/ha) | Redstem plant response rating ([8]; 32 g ai/ha) | Sprangletop, Brdd. plant response rating ([10]; 250 g ai/ha) | Sprangletop, Brdd. plant response rating ([10]; 500 g ai/ha)
20: Sedge, Umbrella plant response rating ([1]; 32 g ai/ha) | Watergrass, Early plant response rating ([6]; 250 g ai/ha) | Junglerice plant response rating ([7]; 64 g ai/ha) | Junglerice plant response rating ([7]; 125 g ai/ha) | Watergrass, Late plant response rating ([9]; 64 g ai/ha) | Watergrass, Late plant response rating ([9]; 125 g ai/ha) | Watergrass, Late plant response rating ([9]; 250 g ai/ha)
40: Flatsedge, Rice plant response rating ([3]; 125 g ai/ha) | Flatsedge, Rice plant response rating ([3]; 250 g ai/ha)
80: Redstem plant response rating ([8]; 64 g ai/ha) | Redstem plant response rating ([8]; 125 g ai/ha)
70: Plant response rating, Velvetleaf [13, 18]
30: Plant response rating, Pigweed [14, 21] | Plant response rating, Crabgrass [15, 21] | Plant response rating, Morningglory [16, 19]
35: Rice, Water Seeded plant response rating ([4]; 500 g ai/ha) | Sprangletop, Brdd. plant response rating ([10]; 32 g ai/ha) | Sprangletop, Brdd. plant response rating ([10]; 64 g ai/ha) | Plant response rating, Barnyardgrass [12, 18]
60: Sprangletop, Brdd. plant response rating ([10]; 125 g ai/ha) | Plant response rating, Barnyardgrass [12, 19]
10: Rice, Water Seeded plant response rating ([4]; 250 g ai/ha) | Plant response rating, Barnyardgrass [12, 21] | Plant response rating, Morningglory [16, 18] | Plant response rating, Foxtail, Giant [17, 21]
5: Plant response rating, Crabgrass [15, 19]
15: Plant response rating, Morningglory [16, 21]
85: Sedge, Umbrella plant response rating ([1]; 125 g ai/ha)
75: Sedge, Umbrella plant response rating ([1]; 64 g ai/ha)
0: Barnyardgrass plant response rating ([2]; 32 g ai/ha) | Barnyardgrass plant response rating ([2]; 64 g ai/ha) | Barnyardgrass plant response rating ([2]; 125 g ai/ha) | Barnyardgrass plant response rating ([2]; 250 g ai/ha) | Flatsedge, Rice plant response rating ([3]; 32 g ai/ha) | Flatsedge, Rice plant response rating ([3]; 64 g ai/ha) | Rice, Water Seeded plant response rating ([4]; 32 g ai/ha) | Rice, Water Seeded plant response rating ([4]; 64 g ai/ha) | Rice, Water Seeded plant response rating ([4]; 125 g ai/ha) | Rice, Transplanted plant response rating ([5]; 32 g ai/ha) | Rice, Transplanted plant response rating ([5]; 64 g ai/ha) | Rice, Transplanted plant response rating ([5]; 125 g ai/ha) | Rice, Transplanted plant response rating ([5]; 250 g ai/ha) | Watergrass, Early plant response rating ([6]; 32 g ai/ha) | Watergrass, Early plant response rating ([6]; 64 g ai/ha) | Watergrass, Early plant response rating ([6]; 125 g ai/ha) | Junglerice plant response rating ([7]; 32 g ai/ha) | Watergrass, Late plant response rating ([9]; 32 g ai/ha) | Plant response rating, Barnyardgrass [12, 20] | Plant response rating, Velvetleaf [13, 20] | Plant response rating, Pigweed [14, 20] | Plant response rating, Crabgrass [15, 18] | Plant response rating, Crabgrass [15, 20] | Plant response rating, Morningglory [16, 20] | Plant response rating, Foxtail, Giant [17, 18] | Plant response rating, Foxtail, Giant [17, 20]
25: Rice, Transplanted plant response rating ([5]; 500 g ai/ha) | Watergrass, Early plant response rating ([6]; 500 g ai/ha) | Junglerice plant response rating ([7]; 250 g ai/ha) | Junglerice plant response rating ([7]; 500 g ai/ha) | Watergrass, Late plant response rating ([9]; 500 g ai/ha) | Plant response rating, Pigweed [14, 18] | Plant response rating, Foxtail, Giant [17, 19]
100: Sedge, Umbrella plant response rating ([1]; 500 g ai/ha) | Redstem plant response rating ([8]; 250 g ai/ha) | Redstem plant response rating ([8]; 500 g ai/ha) | Ducksalad plant response rating ([11]; 32 g ai/ha) | Ducksalad plant response rating ([11]; 64 g ai/ha) | Ducksalad plant response rating ([11]; 125 g ai/ha) | Ducksalad plant response rating ([11]; 250 g ai/ha) | Ducksalad plant response rating ([11]; 500 g ai/ha) | Plant response rating, Velvetleaf [13, 19]
95: Sedge, Umbrella plant response rating ([1]; 250 g ai/ha) | Flatsedge, Rice plant response rating ([3]; 500 g ai/ha)
50: Plant response rating, Velvetleaf [13, 21] | Plant response rating, Pigweed [14, 19]
